Key:
[1] = target: T1, renal transporter OAT1 (Homo sapiens, UniProt Q4U2R8); assay: In vitro assessment of transporter interactions; format: in vitro ADME; conditions: data not published
T1 sequence (Q4U2R8 1-563): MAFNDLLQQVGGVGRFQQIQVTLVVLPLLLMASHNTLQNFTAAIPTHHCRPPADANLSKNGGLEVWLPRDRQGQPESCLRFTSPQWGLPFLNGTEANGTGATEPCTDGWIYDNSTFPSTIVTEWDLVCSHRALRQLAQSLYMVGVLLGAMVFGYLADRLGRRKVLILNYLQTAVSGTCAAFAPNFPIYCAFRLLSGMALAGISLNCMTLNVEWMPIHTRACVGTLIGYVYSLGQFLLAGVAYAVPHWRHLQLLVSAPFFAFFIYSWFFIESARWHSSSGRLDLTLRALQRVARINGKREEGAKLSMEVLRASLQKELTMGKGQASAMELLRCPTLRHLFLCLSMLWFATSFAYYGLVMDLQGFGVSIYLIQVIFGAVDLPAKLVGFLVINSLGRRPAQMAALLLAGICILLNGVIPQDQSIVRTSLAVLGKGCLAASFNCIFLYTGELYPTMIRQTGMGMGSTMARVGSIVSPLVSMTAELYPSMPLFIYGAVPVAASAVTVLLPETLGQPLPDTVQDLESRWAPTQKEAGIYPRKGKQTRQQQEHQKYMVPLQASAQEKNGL

[2] = Safety and tolerability (adverse events, laboratory values, vital signs, ECG) in healthy subjects; format: in vivo, human
Protocol: A routine physical examination, determination of vital signs (supine blood pressure, heart rate, respiratory rate, temperature), a 12-lead electrocardiogram (ECG), and clinical laboratory testing (serum chemistry, hematology, urinalysis) were performed at screening, at intervals during the study, and at the 14-day follow-up.
The intent-to-treat (ITT) population included all randomized subjects. The safety population was all randomized subjects who received any study drug.

[3] = Urine PK (urinary excretion, renal clearance) in healthy subjects; conditions: for CL renal: human, urine, intravenous, CLr
[4] = all subjects receiving the treatment
[5] = part C cohort 13, Day 5 (DUR 1 g + sulbactam 1 g)
[6] = part A cohort 6, single 4 g, n=4
[7] = part A cohort 7, single 8 g, n=5
[8] = part A cohort 8 (elderly), single 1 g, n=5
[9] = part B cohort 9, first 48 hours, dose over 48 hours 2.00 g (8 doses)
[10] = part B cohort 9, following the final dose on Day 8, 0.250 g
[11] = part B cohort 10, first 48 hours, dose over 48 hours 4.00 g (8 doses)
[12] = part B cohort 10, following the final dose on Day 8, 0.500 g
[13] = part B cohort 11, first 48 hours, dose over 48 hours 8.00 g (8 doses)
[14] = part B cohort 11, following the final dose on Day 8, 1.000 g
[15] = part B cohort 12, first 48 hours, dose over 48 hours 16.00 g (8 doses)
[16] = part B cohort 12, following the final dose on Day 8, 2.000 g
[17] = part C cohort 13, Day 1 (DUR 1 g alone)
[18] = part C cohort 14, Day 1 (DUR 1 g alone), mean
[19] = part D cohort 15, Day 1, DUR + SUL + IMI-CIL q6h, mean, n=10
[20] = part D cohort 15, Day 11, DUR + SUL + IMI-CIL q6h, mean, n=10

- CL renal ([3]; 0.25 g, mean, part B cohort 9, following the final dose on Day 8, 0.250 g): 84.1 mL/min
- CL renal ([3]; 0.25 g, median, part B cohort 9, following the final dose on Day 8, 0.250 g): 73.5 mL/min
- CL renal ([3]; 0.5 g, mean, part B cohort 10, following the final dose on Day 8, 0.500 g): 95.6 mL/min
- CL renal ([3]; 0.5 g, median, part B cohort 10, first 48 hours, dose over 48 hours 4.00 g (8 doses)): 291 mL/min
- CL renal ([3]; 0.5 g, median, part B cohort 10, following the final dose on Day 8, 0.500 g): 96.2 mL/min
- CL renal ([3]; 1 g, mean, part A cohort 8 (elderly), single 1 g, n=5): 55.4 mL/min
- CL renal ([3]; 1 g, mean, part B cohort 11, first 48 hours, dose over 48 hours 8.00 g (8 doses)): 364 mL/min
- CL renal ([3]; 1 g, mean, part B cohort 11, following the final dose on Day 8, 1.000 g): 93.6 mL/min
- CL renal ([3]; 1 g, median, part A cohort 8 (elderly), single 1 g, n=5): 66 mL/min
- CL renal ([3]; 1 g, median, part B cohort 11, following the final dose on Day 8, 1.000 g): 98 mL/min
- CL renal ([3]; 2 g, mean, part B cohort 9, first 48 hours, dose over 48 hours 2.00 g (8 doses)): 238 mL/min
- CL renal ([3]; 2 g, mean, part B cohort 12, following the final dose on Day 8, 2.000 g): 108 mL/min
- CL renal ([3]; 2 g, median, part B cohort 9, first 48 hours, dose over 48 hours 2.00 g (8 doses)): 220 mL/min
- CL renal ([3]; 2 g, median, part B cohort 12, following the final dose on Day 8, 2.000 g): 109 mL/min
- CL renal ([3]; 4 g, mean, part A cohort 6, single 4 g, n=4): 132 mL/min
- CL renal ([3]; 4 g, mean, part B cohort 10, first 48 hours, dose over 48 hours 4.00 g (8 doses)): 272 mL/min
- CL renal ([3]; 4 g, median, part A cohort 6, single 4 g, n=4): 134 mL/min
- CL renal ([3]; 8 g, mean, part A cohort 7, single 8 g, n=5): 109 mL/min
- CL renal ([3]; 8 g, median, part A cohort 7, single 8 g, n=5): 130 mL/min
- CL renal ([3]; 8 g, median, part B cohort 11, first 48 hours, dose over 48 hours 8.00 g (8 doses)): 392 mL/min
- CL renal ([3]; 16 g, mean, part B cohort 12, first 48 hours, dose over 48 hours 16.00 g (8 doses)): 307 mL/min
- CL renal ([3]; 16 g, median, part B cohort 12, first 48 hours, dose over 48 hours 16.00 g (8 doses)): 307 mL/min
- CL renal [3, 5]: 81 mL/min
- Fe, mean [3, 6]: 76.4345%
- Fe, median [3, 6]: 77.8635%
- Fe, mean [3, 7]: 55.0196%
- Fe, median [3, 7]: 58.8180%
- Fe, mean [3, 8]: 58.2604%
- Fe, median [3, 8]: 57.3870%
- intact drug renally excreted ([3]; part A single dose): approximately 50%
- Fe, mean [3, 9]: 47.662%
- Fe, median [3, 9]: 51.57%
- Fe, mean [3, 10]: 56.473%
- Fe, median [3, 10]: 60.48%
- Fe, mean [3, 11]: 53.939%
- Fe, median [3, 11]: 57.21%
- Fe, mean [3, 12]: 67.523%
- Fe, median [3, 12]: 65.88%
- Fe, mean [3, 13]: 56.699%
- Fe, median [3, 13]: 65.06%
- Fe, mean [3, 14]: 65.711%
- Fe, median [3, 14]: 67.09%
- Fe, mean [3, 15]: 55.354%
- Fe, median [3, 15]: 49.25%
- Fe, mean [3, 16]: 69.336%
- Fe, median [3, 16]: 63.93%
- Fe [3, 17]: 40.964 (6.869) %
- Fe [3, 5]: 49.963 (9.530) %
- Fe [3, 18]: 42.664%
- Fe [3, 19]: 43.518%
- Fe [3, 20]: 49.158%
Structure (SMILES): CC1=C[C@@H]2CN(C(=O)N2OS(=O)(=O)O)[C@@H]1C(N)=O [DUR, Durlobactam]
- substrate of renal transporter OAT1 [1]: affinity of the substrate for the renal transporter OAT1
- drug-related AE: catheter site phlebitis ([2]; DUR group, all subjects): 5.3%
- drug-related AE: headache ([2]; DUR group, all subjects): 10.6%
- treatment-emergent AE: catheter site phlebitis ([2]; DUR group, all subjects): 8.5%
- treatment-emergent AE: headache ([2]; DUR group, all subjects): 13.8%
- Drug-related AE: Abdominal pain [2, 4]: 0 No. (%) of subjects
- Drug-related AE: Dizziness [2, 4]: 4 (4.3) No. (%) of subjects
- Drug-related AE: Dysgeusia [2, 4]: 2 (2.1) No. (%) of subjects
- Drug-related AE: Nasal congestion [2, 4]: 2 (2.1) No. (%) of subjects
- Drug-related AE: Nausea [2, 4]: 2 (2.1) No. (%) of subjects
- Drug-related AE: Pain in extremity [2, 4]: 1 (1.1) No. (%) of subjects
- Drug-related AE: Phlebitis [2, 4]: 2 (2.1) No. (%) of subjects
- Drug-related AE: Polydipsia [2, 4]: 0 No. (%) of subjects
- Drug-related AE: Pruritus [2, 4]: 2 (2.1) No. (%) of subjects
- Drug-related AE: Somnolence [2, 4]: 1 (1.1) No. (%) of subjects
- Drug-related AE: Upper respiratory infection [2, 4]: 1 (1.1) No. (%) of subjects
- Drug-related AE: Vulvovaginal candidiasis [2, 4]: 2 (2.1) No. (%) of subjects
- drug-related AE: catheter site phlebitis [2, 4]: 5 (5.3) No. (%) of subjects
- drug-related AE: headache [2, 4]: 10 (10.6) No. (%) of subjects
- overall safety and tolerability ([2]; alone or with SUL and/or IMI-CIL): generally safe and well tolerated
- changes in clinical laboratory values, vital signs, or ECG findings ([2]; any subject): No clinically significant changes
- Ae, mean [3, 6]: 3057.384 mg
- Ae, median [3, 6]: 3114.55 mg
- Ae, mean [3, 7]: 4401.576 mg
- Ae, median [3, 7]: 4705.45 mg
- Ae, mean [3, 8]: 582.604 mg
- Ae, median [3, 8]: 573.87 mg
- Ae, mean [3, 9]: 953.242 mg
- Ae, median [3, 9]: 1031.41 mg
- Ae, mean [3, 10]: 141.184 mg
- Ae, median [3, 10]: 151.20 mg
- Ae, mean [3, 11]: 2157.551 mg
- Ae, median [3, 11]: 2288.24 mg
- Ae, mean [3, 12]: 337.614 mg
- Ae, median [3, 12]: 329.39 mg
- Ae, mean [3, 13]: 4535.949 mg
- Ae, median [3, 13]: 5204.73 mg
- Ae, mean [3, 14]: 657.112 mg
- Ae, median [3, 14]: 670.87 mg
- Ae, mean [3, 15]: 8856.594 mg
- Ae, median [3, 15]: 7879.32 mg
- Ae, mean [3, 16]: 1386.730 mg
- Ae, median [3, 16]: 1278.52 mg
- Ae [3, 17]: 409.644 (68.690) mg
- Ae [3, 5]: 499.627 (95.305) mg
- Ae [3, 18]: 426.643 mg
- Ae [3, 19]: 3481.42 mg
- Ae [3, 20]: 491.58 mg
